Measurements from patent publication US20260048118A1, “COMPOSITIONS AND METHODS FOR ENHANCING TRIPLEX AND NUCLEASE-BASED GENE EDITING” (Yale University, priority 2018, published 2026).

Experiments:
[1] = tested on: CD117+ cells from bone marrow and spleen of β-globin/GFP transgenic mice; experiment: In vivo gene editing in CD117+ cells of β-globin/GFP transgenic mice, GFP flow cytometry; set-up: species or system mouse; conditions: 0.5 mg 3E10 i.p. 3 h before 2 mg PNA/DNA nanoparticles i.v.; harvested after eight days
Protocol: To evaluate the effects of 3E10 on PNA/DNA directed gene editing in vivo, the same β-globin/GFP transgenic mouse model described above was used. Three hours prior to treatment with nanoparticles, mice were injected with 0.5 mg of 3E10 intraperitoneally (i.p.). Either the full-length 3E10 or a single-chain variable fragment (scFv) were used. Two mg of nanoparticles containing PNA/Donor DNA were then injected intravenously. After eight days, bone marrow and spleens were harvested and CD117+ cells (C-KIT+, a marker of hematopoietic stem and progenitor cells) from these tissues were isolated using a Hematopoietic Progenitor Stem Cell Enrichment Set (BD Bioscience). Following enrichment, cells were analyzed via flow cytometry for GFP expression.

[2] = tested on: bone marrow cells from Townes mice (beta globin gene, SCD mutation); experiment: PNA/DNA editing of beta globin SCD mutation in bone marrow cells from Townes mice, ddPCR; format: cell-based, mouse; conditions: 2 mg nanoparticles per well, 48 h, 3E10 line: full length 3E10 plus nanoparticles
Protocol: Bone marrow cells were isolated from the same transgenic mouse model of sickle cell disease described above in Example 3 (Townes model, Jackson Laboratory). Cells were treated with full length 3E10 plus 2 mg of nanoparticles per well. The nanoparticles contained the donor DNA plus tcPNA2A, designed to bind to and correct the beta globin gene at the site of the SCD mutation (A:T to T:A).
After 48 hours, the cells were washed prior to genomic DNA isolation (SV Wizard, Promega). Freshly isolated genomic DNA was analyzed by droplet digital PCR (ddPCR) to quantify gene editing frequencies.

[3] = tested on: bone marrow cells of Townes mice (codon 6 mutation in the beta globin gene); experiment: In vivo PNA/DNA editing in Townes mice, bone marrow cells analysed by ddPCR; set-up: species or system mouse; conditions: 4 doses of 2 mg nanoparticles over 2 weeks, analysed after two months; 3E10 line: 1 mg 3E10 i.p. 3 h prior to each dose
Protocol: To further validate whether 3E10 can boost gene editing in vivo, the Townes model (the same sickle cell transgenic mouse model used in Examples 3 and 4) was used. Mice were injected with a total of 4 doses of 2 mg of nanoparticles containing PNA/donor DNA over the course of 2 weeks, with the goal of correcting the codon 6 mutation in the beta globin gene. Three hours prior to each nanoparticle administration, mice were injected with 1 mg of 3E10 intraperitoneally (i.p). After two months, bone marrow cells were harvested and analyzed for editing via digital droplet PCR (ddPCR). Injections were performed […] every 3 days over the course of 2 weeks as described above.

[4] = tested on: SC-1 cells, a human lymphoblastoid cell line that carries the SCD mutation; experiment: Beta globin editing in SC-1 cells, ddPCR; format: cell-based; conditions: 2 mg nanoparticles per well, 48 h, 3E10 line: 3E10 prior to nanoparticles
Protocol: SC-1 cells, a human lymphoblastoid cell line that carries the SCD mutation, were treated with 2 mg of nanoparticles per well with or without 3E10. After 48 hours, the cells were washed prior to genomic DNA isolation (SV Wizard, Promega). Freshly isolated genomic DNA was analyzed by droplet digital PCR (ddPCR) for editing frequencies.

[5] = tested on: K562 cells carrying a BFP/GFP reporter gene; experiment: CRISPR/Cas9 D10A nickase gene editing in K562 BFP/GFP reporter cells, flow cytometry; format: cell-based, human; conditions: full-length 3E10 1.5 mg/mL=10 μM, RNP plus donor DNA nucleofected, two days
Protocol: K562 cells carrying a BFP/GFP reporter gene (Richardson, et al., Nat. Biotechnol., 34 (3): 339-44 (2016)) were transfected with CRISPR/Cas9 WT or CRISPR/Cas9 D10A nickase variant enzymes plus a guide RNA targeting the mutation site in GFP. Some samples were also treated with full-length 3E10, at a concentration of 1.5 mg/mL=10 μM.
Cas9 protein and guide RNAs were introduced by nucleofection as a ribonucleoprotein (RNP) complex. 45 pmol of Cas9 protein (D10A nickase variant or WT, both obtained from PNA Bio) with 45 pmol of sgRNA (synthesized with Invitrogen GeneArt kit) in Cas9 nuclease buffer (NEB), were pre-incubated for 5 minutes at room temperature.
Cells were nucleofected with the RNP complex and donor DNA having the sequence:
The frequency of gene editing was measured two days later by flow cytometry for green fluorescence.

Substance: 3E10: cell-penetrating monoclonal anti-DNA antibody that binds to and inhibits RAD51; produced by ATCC No. PTA 2439 hybridoma
- gene editing in bone marrow CD117+ cells vs nanoparticles alone [1]: higher levels of gene editing
- gene editing in spleen CD117+ cells vs nanoparticles alone [1]: higher levels of gene editing
- gene editing frequency (ddPCR) [2]: more than 8%
- average editing frequency in bone marrow cells (ddPCR) [3]: 2.1%
- gene editing frequency (ddPCR) [4]: 17%
- effect on gene editing by nickase Cas9 D10A (green fluorescence) [5]: substantially boosted gene editing
